Measurements from patent EP0774460A1, “BENZOIC ACID COMPOUND AND USE THEREOF AS MEDICINE” (YOSHITOMI PHARMACEUTICAL INDUSTRIES, LTD., priority 1994, dated 1995).
Like-named read-outs stand apart in the source and are kept apart here.

Columns and labels:
[1] = molecular target: T1, 5-HT4 receptor (Cavia porcellus, UniProt O70528); assay: 5-HT4 receptor binding test; set-up: species or system guinea pig
T1 construct: crude synapse membrane sample was prepared from guinea pig striatum; from tissue; host or cells: guinea pig striatum, crude synaptic membranes
T1 sequence (O70528 whole entry): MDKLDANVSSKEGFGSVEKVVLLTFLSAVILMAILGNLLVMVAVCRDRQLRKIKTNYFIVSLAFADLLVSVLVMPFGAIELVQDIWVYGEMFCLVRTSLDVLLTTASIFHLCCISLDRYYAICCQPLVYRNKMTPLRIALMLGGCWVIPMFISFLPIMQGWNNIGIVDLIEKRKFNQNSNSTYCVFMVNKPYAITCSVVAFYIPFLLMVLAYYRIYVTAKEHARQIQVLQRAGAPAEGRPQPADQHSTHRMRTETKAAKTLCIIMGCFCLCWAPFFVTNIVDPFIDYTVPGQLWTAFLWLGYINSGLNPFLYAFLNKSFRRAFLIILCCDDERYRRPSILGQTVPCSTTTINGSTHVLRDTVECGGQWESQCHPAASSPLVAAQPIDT
Protocol: Experimental Example 1 : 5-HT4 receptor binding test
According to the method of C.J. Grossman et al. (British Journal of Pharmacology, vol. 109, pp. 618-624), a specific 5-HT4 receptor binding test was run using, as a tracer ligand, 1-methyl-1H-indole-3-carboxylic acid · 1-(2-methylsulfonylaminoethyl)-piperidin-4-ylmethyl ester substituted by tritium (hereinafter to be referred to as [3H]GR113808). Specifically, crude synapse membrane sample was prepared from guinea pig striatum, suspended in 50 mM HEPES buffer (pH 7.4) and used for testing. The test compound having several different concentrations and [3H]GR113808 (final concentration 0.1 nM) were added to this suspension and allowed to react at 37°C. Thirty minutes later, the reaction mixture was filtered by suction with cell harvester. The filter was washed with 50 mM HEPES buffer, and the radioactivity on the filter was counted by liquid scintillation counter. The non-specific binding was determined in the presence of 1 µM GR113808. The concentration of the test compound necessary for 50% inhibition (IC50) and Ki value were determined from graph.

[2] = molecular target: T2, 5-HT3 receptor (Rattus norvegicus, UniProt P35563); assay: 5-HT3 receptor binding test; conditions: for Ki: cells without asterisk, read-out: Affinity for receptor (Ki value, nM) 5-HT3
T2 construct: crude synapse membrane sample was prepared from rat cerebral cortex; from tissue; host or cells: rat cerebral cortex, crude synaptic membranes
T2 sequence (P35563 24-483): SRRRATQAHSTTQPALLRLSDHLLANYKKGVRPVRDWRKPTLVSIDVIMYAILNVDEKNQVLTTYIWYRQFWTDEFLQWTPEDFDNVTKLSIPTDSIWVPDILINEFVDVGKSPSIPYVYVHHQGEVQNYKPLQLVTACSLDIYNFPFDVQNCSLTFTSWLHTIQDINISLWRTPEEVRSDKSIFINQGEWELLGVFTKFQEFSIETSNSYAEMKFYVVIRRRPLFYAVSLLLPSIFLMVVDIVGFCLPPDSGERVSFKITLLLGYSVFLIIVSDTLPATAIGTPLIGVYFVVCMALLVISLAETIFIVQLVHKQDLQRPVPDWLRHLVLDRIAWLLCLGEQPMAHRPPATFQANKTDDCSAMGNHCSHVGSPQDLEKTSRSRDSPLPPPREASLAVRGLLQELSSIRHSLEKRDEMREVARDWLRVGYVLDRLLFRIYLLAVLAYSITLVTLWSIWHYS
Protocol: Experimental Example 2 : 5-HT3 receptor binding test
According to the method of Peroutka et al (European Journal of Pharmacology, vol. 148, pp. 297-299), a specific 5-HT3 receptor binding test was run using, as a tracer ligand, endo-1-methyl-N-(9-methyl-9-azabicyclo[3.3.1]non-3-yl)-1H-indazole-3-carboxamide substituted by tritium (hereinafter to be referred to as [3H]Granisetron). Specifically, crude synapse membrane sample was prepared from rat cerebral cortex, suspended in 50 mM HEPES buffer (pH 7.4) and used for testing. The test compound having several different concentrations and [3H]Granisetron (final concentration 1.0 nM) were added to this suspension and allowed to react at 25°C. Thirty minutes later, the reaction mixture was filtered by suction with cell harvester. The filter was washed with 50 mM Tris buffer (pH 7.4), and the radioactivity on the filter was counted using liquid scintillation counter or β-plate. The non-specific binding was determined in the presence of 1 µM Tropisetron. The concentration of the test compound necessary for 50% inhibition (IC50) and Ki value were determined from graph.

[3] = molecular target: isolated guinea pig ascending colon (Cavia porcellus, UniProt O70528); assay: contraction of isolated guinea pig ascending colon; assay type: cell-based; conditions: male Hartley guinea pig ascending colon, Tyrode solution 37°C, relative to methacholine (30 µM) contraction; read-out: Contraction of removed colon (EC50)
isolated guinea pig ascending colon, sequence (O70528 whole entry): as the sequence (O70528 whole entry) above
Protocol: Experimental Example 3 : contraction of isolated guinea pig ascending colon
About 3 cm long ascending colon segment was taken from male Hartley guinea pig and suspended in 10 ml of a Tyrode solution ventilated with a mixed gas of oxygen (95%) and CO2 (5%) at 37°C with the load of 2 g. The contraction was isotonically measured via isotonic transducer. After an equilibrium period of about 30 min, the test compound was administered non-cumulatively from lower concentrations, and dose-dependent contraction was measured. The test compound was administered at 15 minutes intervals. Then, contraction by the test compound in the presence of a 5-HT4 receptor antagonist, 4-amino-3-chloro-6-methoxybenzoic acid · 2-diethylaminoethyl ester (0.3 µM, hereinafter to be referred to as SDZ 205-557) was determined, and antagonistic effect on the reaction by SDZ 205-557 was confirmed.
The contraction by the test compound was evaluated based on the ratio of reaction relative to mean contraction induced by methacholine (30 µM) administered before and after each determination of dose-dependent contraction. The contraction was probit-converted using the maximum value of dose-response curve as 100, and expressed by EC50 as determined from linear regression and maximum reaction ratio.

[4] = [3H]GR113808 0.1 nM, crude synapse membrane from guinea pig striatum, 37°C, read-out: Affinity for receptor (Ki value, nM) 5-HT4
[5] = [3H]Granisetron 1.0 nM, crude synapse membrane from rat cerebral cortex, 25°C, cells marked * are IC50, read-out: Affinity for receptor 5-HT3 (∗ shows IC50)
[6] = [3H]Granisetron 1.0 nM, crude synapse membrane from rat cerebral cortex, 25°C

Compound	Ki [1, 4]	IC50 [2, 5]	EC50 [3]	Ki [2, 6]	Ki [1]	IC50 [2]
COc1cc(N)c(Cl)cc1C(=O)NCC1CCN(CCCCNC(=O)c2ccc3ccccc3c2)CC1 [Example 25, 4-amino-5-chloro-2-methoxy-N-(1-(4-(2-naphthoylamino)butyl)piperidin-4-ylmethyl) benzamide]	1.4 nM	> 1000 nM	4.6 nM			
COc1cc(N)c(Cl)cc1C(=O)NCC1CCN(CCCCCNC(=O)c2cccc(Cl)c2)CC1 [Example 30, 4-amino-5-chloro-N-(1-(5-(3-chlorobenzoylamino)pentyl)piperidin-4-ylmethyl)-2-methoxybenzamide]	0.81 nM	> 1000 nM	1.6 nM			
COc1cc(N)c(Cl)cc1C(=O)NCC1CCN(CCCCCNC(=O)c2ccc(C)cc2)CC1 [Example 31, 4-amino-5-chloro-N-(1-(5-(4-methylbenzoylamino)pentyl)piperidin-4-ylmethyl)-2-methoxybenzamide]	2.3 nM	> 1000 nM				
CCCNC(=O)NCCCCN1CCC(CNC(=O)c2cc(Cl)c(N)cc2OC)CC1 [Example 45, 4-amino-5-chloro-2-methoxy-N-(1-(4-(3-n-propylureido)butyl)piperidin-4-ylmethyl)benzamide]	5.5 nM	> 1000 nM				
CCCNC(=O)NCCCCCN1CC[C@H](CNC(=O)c2cc(Cl)c(N)cc2OC)C1 [Example 46, 4-amino-5-chloro-2-methoxy-N-((3R)-1-(5-(3-n-propylureido)pentyl)pyrrolidin-3-ylmethyl)benzamide]	1.5 nM	> 1000 nM	6.9 nM			
CCCNC(=O)NCCCCCN1CCC(CNC(=O)c2cc(Cl)c(N)cc2OC)CC1 [Example 48, 4-amino-5-chloro-2-methoxy-N-(1-(5-(3-n-propylureido)pentyl)piperidin-4-ylmethyl)benzamide]	2.1 nM	> 1000 nM	4.8 nM			
COc1cc(N)c(Cl)cc1C(=O)NCC1CCN(CCCCCNC(=O)Nc2ccc(Cl)cc2)CC1 [Example 59, 4-amino-5-chloro-N-(1-(5-(3-(4-chlorophenyl)ureido)pentyl)-piperidin-4-ylmethyl)-2-methoxybenzamide]	1.1 nM			190 nM		
COc1cc(N)c(Cl)cc1C(=O)NCCCCCN1CC[C@H](CNC(=O)c2cc(Cl)c(N)cc2OC)C1 [Example 78, 4-amino-N-((3R)-1-(5-(4-amino-5-chloro-2-methoxybenzoylamino)pentyl)pyrrolidin-3-ylmethyl)-5-chloro-2-methoxybenzamide]	1.4 nM			370 nM		
COc1cc(N)c(Cl)cc1C(=O)NC[C@H]1CCN(CCCCNC(=O)c2cn(C(C)C)c3ccccc23)C1 [Example 94, N-(4-((3R)-3-(4-amino-5-chloro-2-methoxybenzoylaminomethyl)pyrrolidin-1-yl)butyl)-1-isopropyl-1H-indole-3-carboxamide]					3.5 nM	> 1000 nM
COc1cc(N)c(Cl)cc1C(=O)NC[C@H]1CCN(CCCCNC(=O)c2cn(Cc3ccccc3)c3ccccc23)C1 [Example 95, N-(4-((3R)-3-(4-amino-5-chloro-2-methoxybenzoylaminomethyl)pyrrolidin-1-yl)butyl)-1-benzyl-1N-indole-3-carboxamide]	1.2 nM	> 1000 nM				

Continued, in another order:

Ki [1, 4]	IC50 [2, 5]	EC50 [3]	Ki [2, 6]	Compound	Ki [1]	IC50 [2]
6.2 nM	> 1000 nM			COc1cc(N)c(Cl)cc1C(=O)NC[C@H]1CCN(CCCNC(=O)c2ccccc2)C1 [Example 11, 4-amino-N-((3R)-1-(3-benzoylaminopropyl)pyrrolidin-3-ylmethyl)-5-chloro-2-methoxybenzamide]		
3.1 nM	> 1000 nM			COc1cc(N)c(Cl)cc1C(=O)NCC1CCN(CCCNC(=O)c2ccc(Cl)cc2)C1 (stereo not drawn) [Example 13, 4-amino-5-chloro-N-(1-(3-(4-chlorobenzoylamino)propyl)pyrrolidin-3-ylmethyl)-2-methoxybenzamide]		
3.1 nM	> 1000 nM			COc1cc(N)c(Cl)cc1C(=O)NCC1CCN(CCCNC(=O)c2ccc(C)cc2)C1 (stereo not drawn) [Example 17, 4-amino-5-chloro-2-methoxy-N-(1-(3-(4-methylbenzoylamino)propyl)pyrrolidin-3-ylmethyl)benzamide]		
4.4 nM	> 1000 nM			COc1cc(N)c(Cl)cc1C(=O)NCC1CCN(CCCNC(=O)c2cccs2)C1 (stereo not drawn) [Example 19, 4-amino-5-chloro-2-methoxy-N-(1-(3-(2-thiophenecarbonylamino)propyl)pyrrolidin-3-ylmethyl)benzamide]		
1.3 nM	> 1000 nM	3.3 nM		COc1cc(N)c(Cl)cc1C(=O)NC[C@H]1CCN(CCCCNC(=O)c2cccc3ccccc23)C1 [Example 22, 4-amino-5-chloro-2-methoxy-N-((3R)-1-(4-(1-naphthoylamino)butyl)pyrrolidin-3-ylmethyl)benzamide]		
1.6 nM	> 1000 nM	3.9 nM		COc1cc(N)c(Cl)cc1C(=O)NCC1CCN(CCCCNC(=O)c2cccc3ccccc23)CC1 [Example 24, 4-amino-5-chloro-2-methoxy-N-(1-(4-(1-naphthoylamino)butyl)piperidin-4-ylmethyl)benzamide]		
2.2 nM	> 1000 nM	5.3 nM		COc1cc(N)c(Cl)cc1C(=O)NC[C@H]1CCN(CCCCCNC(=O)c2ccccc2)C1 [Example 27, 4-amino-N-((3R)-1-(5-benzoylaminopentyl)pyrrolidin-3-yl-methyl)-5-chloro-2-methoxybenzamide]		
1.7 nM	> 1000 nM	3.7 nM		COc1cc(N)c(Cl)cc1C(=O)NCC1CCN(CCCCCNC(=O)c2ccccc2)CC1 [Example 29, 4-amino-N-(1-(5-benzoylaminopentyl)piperidin-4-ylmethyl)-5-chloro-2-methoxybenzamide]		
0.65 nM	> 1000 nM	1 nM		COc1cc(N)c(Cl)cc1C(=O)NC[C@H]1CCN(CCCCCNC(=O)Nc2ccccc2)C1 [Example 56, 4-amino-5-chloro-2-methoxy-N-((3R)-1-(5-(3-phenylureido)pentyl)pyrrolidin-3-ylmethyl)benzamide]		
7.4 nM	> 1000 nM			COc1cc(N)c(Cl)cc1C(=O)NCC1CCN(CCCC(=O)Nc2ccccc2)C1 (stereo not drawn) [Example 71, 4-amino-5-chloro-2-methoxy-N-(1-(3-phenylcarbamoylpropyl)pyrrolidin-3-ylmethyl)benzamide]		
5.3 nM	> 1000 nM			COc1cc(N)c(Cl)cc1C(=O)NC[C@H]1CCN(CCNC(=O)CCCc2ccccc2)C1 [Example 100, 4-amino-5-chloro-2-methoxy-N-((3R)-1-(2-(4-phenylbutyrylamino)ethyl)pyrrolidin-3-ylmethyl)benzamide]		
